± gives the expanded uncertainty stated by the source.

The nature of data set [1]: Molar enthalpy of transition or fusion. To be noted: DSC.
For data set [2] the following is noted: DTA.

Take `CCCCCCCCCCCCCCCCO` [1-hexadecanol]: the “Molar enthalpy of transition or fusion” value in data set [1] (Crystal 2) came out at 13.5 ± 0.765 kcal/mol. In addition, the Triple point temperature stood at 323.17 ± 0.41 K in data set [2] (Crystal 1) and 322.27 ± 0.49 K in data set [2] (Crystal 2).
On to `CCCCCCCCCCCCCCCCCCO` [1-octadecanol], for which, in data set [1] (Crystal 2), the “Molar enthalpy of transition or fusion” value worked out at 15.6 ± 0.908 kcal/mol. Further, the Triple point temperature in data set [2] (Crystal 1) amounted to 331.82 ± 0.49 K; in data set [2] (Crystal 2), 330.97 ± 0.39 K.
The like results for `CCCCCCCCCCCCCCO` [1-tetradecanol] were, in that order, 11.4 ± 0.526 kcal/mol, 311.39 ± 0.39 K and 310.45 ± 0.41 K.
On the same counts, the results for `CCCCCCCCCCCC(=O)O` [dodecanoic acid] are 8.51 ± 0.335 kcal/mol, 318.29 ± 0.41 K and 317.9 ± 0.6 K.
For the compound `CCCCCCCCCCCCCCCC(=O)O` [hexadecanoic acid], in data set [1] (Crystal), the “Molar enthalpy of transition or fusion” value came out at 12.7 ± 0.574 kcal/mol. The Triple point temperature in data set [2] (Crystal) is on record as 336.34 ± 0.63 K.
Take `CCCCCCCCCCCCCC(=O)O` [tetradecanoic acid]: the “Molar enthalpy of transition or fusion” value in data set [1] (Crystal 2) was 10.5 ± 0.43 kcal/mol. For the same compound, the Triple point temperature in data set [2] (Crystal 1) came to 328.13 ± 0.48 K; in data set [2] (Crystal 2) it was 327.65 ± 0.48 K.

(Values after the NIST ThermoML archive (doi:10.1016/j.fluid.2014.01.004).)
